As usually defined, the inhibition is the relative decrease from the control value, in per cent.

These results are taken from patent publication US20120270237A9, “METHODS FOR THE IDENTIFICATION OF KINASE INTERACTING MOLECULES AND FOR THE PURIFICATION OF KINASE PROTEINS” (Cellzone AG, priority 2009, published 2012).

SMILES strings stand for the structures.

Holding throughout (conditions): 10 μM free compound
The target of one assay is GSK3B (Homo sapiens, UniProt P49841). Put plainly: Kinobeads competition binding, HeLa Placenta lysate mix. Also on record: endogenous in cells. How it is done:
(§1) To one aliquot of cell lysate 10 μM of the free compound (FIG. 3, CZC31326) was added and allowed to bind to proteins in the lysate. Then the affinity matrix with the immobilized compound was added to capture proteins that were not interacting with the previously added free compound. Beads were separated from the lysate and bead bound proteins were eluted in SDS sample buffer and subsequently separated by SDS-Polyacrylamide gel electrophoresis (FIG. 10). Suitable gel bands were cut out and subjected to in-gel proteolytic digestion with trypsin. The second lysate aliquot was processed identically, however no free compound was added (DMSO solvent control). Peptides originating from samples 1 and 2 were labeled with iTRAQ reagents (iTRAQ 114 and iTRAQ 117) and the combined samples were analyzed with a nano-flow liquid chromatography system coupled online to a tandem mass spectrometer (LC-MS/MS) experiment followed by iTRAQ reporter ion quantification in the MS/MS spectra as described in Example 2.

The target in a further assay is IRE1 (Homo sapiens, UniProt O75460). The description is as above. On the set-up: endogenous in cells. How it is done:
as §1

Another assay concerns the target T1, AurA (Homo sapiens, UniProt O14965).
T1 sequence (O14965 1-403): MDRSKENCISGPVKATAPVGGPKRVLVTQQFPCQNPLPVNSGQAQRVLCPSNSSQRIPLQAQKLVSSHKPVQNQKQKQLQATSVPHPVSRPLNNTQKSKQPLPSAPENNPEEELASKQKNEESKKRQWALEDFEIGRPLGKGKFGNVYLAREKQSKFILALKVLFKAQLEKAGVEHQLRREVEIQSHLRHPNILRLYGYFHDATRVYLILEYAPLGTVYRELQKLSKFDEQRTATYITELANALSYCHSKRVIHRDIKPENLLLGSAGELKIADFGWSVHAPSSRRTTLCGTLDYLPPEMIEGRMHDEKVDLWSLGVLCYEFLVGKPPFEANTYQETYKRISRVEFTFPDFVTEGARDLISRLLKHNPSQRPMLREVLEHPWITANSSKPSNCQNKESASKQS
The description is as above. On the set-up: endogenous in cells. How it is done:
as §1

The next assay has as its target RSK3 (Homo sapiens, UniProt Q15349). The assay is described as above. On the set-up: endogenous in cells. How it is done:
as §1

For the next assay, the target named is LRRK2 (Homo sapiens, UniProt Q5S007). Described as above. Also on record: endogenous in cells. How it is done: as §1
Sequence of LRRK2 (Q5S007 whole entry): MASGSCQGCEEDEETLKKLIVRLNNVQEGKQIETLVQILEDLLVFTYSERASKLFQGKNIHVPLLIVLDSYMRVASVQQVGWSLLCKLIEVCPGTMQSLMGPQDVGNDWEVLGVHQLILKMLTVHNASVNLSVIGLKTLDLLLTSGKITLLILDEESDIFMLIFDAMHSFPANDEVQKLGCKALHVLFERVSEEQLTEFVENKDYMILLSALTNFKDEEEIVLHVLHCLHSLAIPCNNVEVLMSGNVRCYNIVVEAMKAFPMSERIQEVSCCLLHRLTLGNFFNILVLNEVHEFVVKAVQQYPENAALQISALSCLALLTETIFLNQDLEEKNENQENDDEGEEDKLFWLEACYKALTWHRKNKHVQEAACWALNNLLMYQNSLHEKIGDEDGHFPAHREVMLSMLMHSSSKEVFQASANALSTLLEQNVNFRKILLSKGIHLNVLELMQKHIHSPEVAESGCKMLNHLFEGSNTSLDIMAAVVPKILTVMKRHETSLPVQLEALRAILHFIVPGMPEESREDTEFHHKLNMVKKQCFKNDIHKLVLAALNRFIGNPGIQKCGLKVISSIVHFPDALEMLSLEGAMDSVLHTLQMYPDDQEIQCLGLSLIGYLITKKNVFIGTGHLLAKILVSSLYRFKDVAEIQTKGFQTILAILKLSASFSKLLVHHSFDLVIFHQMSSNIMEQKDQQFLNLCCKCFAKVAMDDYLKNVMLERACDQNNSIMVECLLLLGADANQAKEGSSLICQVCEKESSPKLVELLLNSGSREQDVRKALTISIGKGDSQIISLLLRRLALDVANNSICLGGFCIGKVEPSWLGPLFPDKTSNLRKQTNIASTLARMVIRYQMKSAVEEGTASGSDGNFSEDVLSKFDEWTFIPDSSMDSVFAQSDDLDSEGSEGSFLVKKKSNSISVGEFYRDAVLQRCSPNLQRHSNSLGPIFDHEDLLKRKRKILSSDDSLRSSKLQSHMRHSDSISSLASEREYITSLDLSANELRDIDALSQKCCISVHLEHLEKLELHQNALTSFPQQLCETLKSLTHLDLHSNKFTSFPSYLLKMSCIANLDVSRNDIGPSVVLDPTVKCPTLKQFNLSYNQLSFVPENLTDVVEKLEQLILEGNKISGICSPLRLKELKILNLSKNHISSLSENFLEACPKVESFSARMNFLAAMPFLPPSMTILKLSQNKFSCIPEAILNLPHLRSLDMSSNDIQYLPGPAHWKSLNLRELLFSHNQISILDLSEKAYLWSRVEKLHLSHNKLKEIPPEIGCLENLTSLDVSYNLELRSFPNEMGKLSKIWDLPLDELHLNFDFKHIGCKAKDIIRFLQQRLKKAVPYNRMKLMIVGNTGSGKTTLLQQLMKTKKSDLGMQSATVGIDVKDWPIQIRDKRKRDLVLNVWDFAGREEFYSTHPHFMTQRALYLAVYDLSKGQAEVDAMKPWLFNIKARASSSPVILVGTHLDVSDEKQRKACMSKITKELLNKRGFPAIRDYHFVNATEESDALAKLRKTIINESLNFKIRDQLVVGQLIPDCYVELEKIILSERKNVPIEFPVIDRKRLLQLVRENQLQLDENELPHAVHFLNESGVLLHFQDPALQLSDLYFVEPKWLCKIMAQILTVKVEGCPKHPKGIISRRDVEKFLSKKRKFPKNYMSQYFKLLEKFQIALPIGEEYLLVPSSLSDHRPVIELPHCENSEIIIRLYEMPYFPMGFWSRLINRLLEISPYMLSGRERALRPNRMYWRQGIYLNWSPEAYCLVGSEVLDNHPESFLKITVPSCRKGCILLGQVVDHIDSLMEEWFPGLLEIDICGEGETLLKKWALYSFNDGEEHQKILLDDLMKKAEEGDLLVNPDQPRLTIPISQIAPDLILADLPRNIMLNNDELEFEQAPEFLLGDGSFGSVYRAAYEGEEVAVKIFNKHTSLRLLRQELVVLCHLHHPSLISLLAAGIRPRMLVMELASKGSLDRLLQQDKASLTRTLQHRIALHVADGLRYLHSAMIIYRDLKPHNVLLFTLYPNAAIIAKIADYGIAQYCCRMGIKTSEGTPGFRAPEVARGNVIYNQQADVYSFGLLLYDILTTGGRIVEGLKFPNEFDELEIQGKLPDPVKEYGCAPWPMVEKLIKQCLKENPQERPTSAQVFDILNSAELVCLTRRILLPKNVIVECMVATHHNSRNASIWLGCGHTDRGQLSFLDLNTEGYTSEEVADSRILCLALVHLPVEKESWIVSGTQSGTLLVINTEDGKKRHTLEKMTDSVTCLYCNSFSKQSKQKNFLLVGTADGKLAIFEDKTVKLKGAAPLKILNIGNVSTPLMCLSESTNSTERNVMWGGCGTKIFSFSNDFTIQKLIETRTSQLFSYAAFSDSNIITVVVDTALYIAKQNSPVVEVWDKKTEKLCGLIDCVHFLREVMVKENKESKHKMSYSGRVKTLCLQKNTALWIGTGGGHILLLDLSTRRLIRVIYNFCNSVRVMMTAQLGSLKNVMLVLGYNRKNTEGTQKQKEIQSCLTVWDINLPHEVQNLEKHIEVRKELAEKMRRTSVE
For the next assay, the target named is MSK2 (Homo sapiens, UniProt O75676). The assay is described as above. Also on record: endogenous in cells. How it is done:
as §1

Another assay concerns the target FER (Homo sapiens, UniProt P16591). The assay is described as above. Also on record: endogenous in cells. How it is done:
as §1

The target of another assay is T2, MSK1 (Homo sapiens, UniProt O75582).
T2 construct: endogenous in cells; host or cells: HL60
Description: Kinobeads competition binding, HL60 cell lysate. How it is done:
(§2) To one aliquot of cell lysate 10 μM of the free compound (FIG. 3, CZC31326) was added and allowed to bind to proteins in the lysate. Then the affinity matrix with the immobilized compound (Example 1) was added to capture proteins that were not interacting with the previously added free compound. Beads were separated from the lysate and bead bound proteins were eluted in SDS sample buffer and subsequently separated by SDS-Polyacrylamide gel electrophoresis (FIG. 4). Suitable gel bands were cut out and subjected to in-gel proteolytic digestion with trypsin. The second lysate aliquot was processed identically, however no free compound was added (DMSO solvent control). Peptides originating from samples 1 and 2 were labeled with iTRAQ reagents (iTRAQ 114 and iTRAQ 117) and the combined samples were analyzed with a nano-flow liquid chromatography system coupled online to a tandem mass spectrometer (LC-MS/MS) experiment followed by iTRAQ reporter ion quantification in the MS/MS spectra (Ross et al., 2004. Mol. Cell. Proteomics 3(12):1154-1169). Further experimental protocols can be found in WO2006/134056 and a previous publication (Bantscheff et al., 2007. Nature Biotechnology 25, 1035-1044). Sepharose-beads with the immobilized compound (100 μl beads per pull-down experiment) were equilibrated in lysis buffer and incubated with a cell lysate sample containing 50 mg of protein on an end-over-end shaker (Roto Shake Genie, Scientific Industries Inc.) for 2 hours at 4° C. Beads were collected, transferred to Mobicol-columns (MoBiTech 10055) and washed with 10 ml lysis buffer containing 0.4% NP40 detergent, followed by 5 ml lysis buffer containing 0.2% detergent. To elute bound proteins, 60 μl 2×SDS sample buffer was added to the column. The column was incubated for 30 minutes at 50° C. and the eluate was transferred to a siliconized microfuge tube by centrifugation. Proteins were then alkylated with 108 mM iodoacetamid. Proteins were then separated by SDS-Polyacrylamide electrophoresis (SDS-PAGE). The peptide extracts of samples treated with 10 μM of free compound (CZC31326) and the solvent control (0.5% DMSO) were treated with different variants of the isobaric tagging reagent (iTRAQ Reagents Multiplex Kit, part number 4352135, Applied Biosystems, Foster City, Calif., USA). The iTRAQ reagents are a set of multiplexed, amine-specific, stable isotope reagents that can label peptides on amino groups in up to four different biological samples enabling simultaneous identification and quantitation of peptides. The iTRAQ reagents were used according to instructions provided by the manufacturer. The samples were resuspended in 10 μl 50 mM TEAB solution, pH 8.5 and 10 μl ethanol were added. The iTRAQ reagent was dissolved in 120 μl ethanol and 10 μl of reagent solution were added to the sample. The labeling reaction was performed at room temperature for one hour on a horizontal shaker and stopped by adding 5 μl of 100 mM TEAB and 100 mM glycine in water. The two labeled sampled were then combined, dried in a vacuum centrifuge and resuspended in 10 μl of 0.1% formic acid in water. Relative protein quantitation was performed using peak areas of iTRAQ reporter ion signals essentially as described in an earlier publication (Bantscheff et al., 2007. Nature Biotechnology 25, 1035-1044).

The target in another assay is T3, RET (Homo sapiens, UniProt P07949).
T3 construct: endogenous in cells; host or cells: HL60 cells
Description: Kinobeads competition binding, HL60 cell lysate. How it is done: as §2

In another assay the target is T4, ACK (Homo sapiens, UniProt Q07912).
T4 construct: endogenous in cells; host or cells: HL60 cells
T4 sequence (Q07912 whole entry): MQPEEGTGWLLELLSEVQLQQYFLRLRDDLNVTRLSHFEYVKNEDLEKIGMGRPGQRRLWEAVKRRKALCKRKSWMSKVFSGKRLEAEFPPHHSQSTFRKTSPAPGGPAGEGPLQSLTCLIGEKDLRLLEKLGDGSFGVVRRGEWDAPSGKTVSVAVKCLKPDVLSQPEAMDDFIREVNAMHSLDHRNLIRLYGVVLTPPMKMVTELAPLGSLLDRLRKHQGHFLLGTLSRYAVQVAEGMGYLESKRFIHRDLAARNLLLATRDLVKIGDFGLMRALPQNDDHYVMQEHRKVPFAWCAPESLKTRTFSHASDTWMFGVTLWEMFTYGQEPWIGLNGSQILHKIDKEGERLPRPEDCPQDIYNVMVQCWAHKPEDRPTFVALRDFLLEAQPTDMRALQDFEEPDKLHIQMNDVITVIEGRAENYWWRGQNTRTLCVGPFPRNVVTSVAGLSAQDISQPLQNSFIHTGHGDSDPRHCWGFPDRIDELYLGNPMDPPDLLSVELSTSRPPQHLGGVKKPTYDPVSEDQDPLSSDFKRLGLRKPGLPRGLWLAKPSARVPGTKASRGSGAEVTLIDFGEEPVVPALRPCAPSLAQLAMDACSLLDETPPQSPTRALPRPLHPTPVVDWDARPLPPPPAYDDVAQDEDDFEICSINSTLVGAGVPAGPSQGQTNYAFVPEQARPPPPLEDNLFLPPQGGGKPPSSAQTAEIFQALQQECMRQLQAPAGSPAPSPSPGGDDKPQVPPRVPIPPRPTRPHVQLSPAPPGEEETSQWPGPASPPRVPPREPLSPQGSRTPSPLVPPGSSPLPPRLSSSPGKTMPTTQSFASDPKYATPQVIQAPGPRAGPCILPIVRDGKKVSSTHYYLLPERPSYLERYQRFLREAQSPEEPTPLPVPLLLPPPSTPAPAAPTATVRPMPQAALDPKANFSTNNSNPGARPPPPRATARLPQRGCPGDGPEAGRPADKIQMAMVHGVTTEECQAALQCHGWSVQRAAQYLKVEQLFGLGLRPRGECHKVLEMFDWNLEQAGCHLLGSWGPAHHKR
Put plainly: Kinobeads competition binding, HL60 cell lysate. How it is done: as §2

A further assay deals with T5, EphB6 (Homo sapiens, UniProt O15197).
T5 construct: endogenous in cells; host or cells: HL60 (DSMZ ACC3)
T5 sequence (O15197 32-1021): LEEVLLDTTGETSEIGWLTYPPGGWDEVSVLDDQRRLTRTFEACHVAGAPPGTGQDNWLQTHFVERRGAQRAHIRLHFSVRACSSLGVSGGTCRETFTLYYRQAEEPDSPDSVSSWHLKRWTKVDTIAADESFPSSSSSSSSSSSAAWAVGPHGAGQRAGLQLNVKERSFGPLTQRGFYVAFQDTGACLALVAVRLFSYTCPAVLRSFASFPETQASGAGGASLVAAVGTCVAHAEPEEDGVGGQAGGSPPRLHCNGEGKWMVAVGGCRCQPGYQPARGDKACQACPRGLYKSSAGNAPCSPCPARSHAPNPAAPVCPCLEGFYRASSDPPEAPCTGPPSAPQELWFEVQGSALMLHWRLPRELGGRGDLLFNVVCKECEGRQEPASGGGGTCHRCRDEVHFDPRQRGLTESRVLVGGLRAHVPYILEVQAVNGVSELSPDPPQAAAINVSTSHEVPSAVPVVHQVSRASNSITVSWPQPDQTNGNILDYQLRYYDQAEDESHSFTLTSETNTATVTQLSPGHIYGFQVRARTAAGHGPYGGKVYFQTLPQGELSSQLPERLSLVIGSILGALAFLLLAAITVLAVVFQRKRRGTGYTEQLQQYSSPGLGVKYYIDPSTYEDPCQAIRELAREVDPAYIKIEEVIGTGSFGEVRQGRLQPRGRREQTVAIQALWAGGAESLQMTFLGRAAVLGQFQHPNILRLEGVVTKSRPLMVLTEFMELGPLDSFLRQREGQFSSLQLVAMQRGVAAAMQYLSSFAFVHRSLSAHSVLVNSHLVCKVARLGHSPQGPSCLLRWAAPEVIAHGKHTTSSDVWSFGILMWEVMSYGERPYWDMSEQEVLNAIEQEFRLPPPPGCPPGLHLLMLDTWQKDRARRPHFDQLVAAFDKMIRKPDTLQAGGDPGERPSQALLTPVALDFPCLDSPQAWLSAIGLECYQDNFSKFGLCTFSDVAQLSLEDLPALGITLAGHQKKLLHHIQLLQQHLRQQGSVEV
Description: Kinobeads competition binding, HL60 cell lysate. How it is done: as §2

The target in the next assay is T6, CRK7 (Homo sapiens, UniProt Q9NYV4).
T6 construct: endogenous in cells; host or cells: HL60 (DSMZ ACC3)
Description: Kinobeads competition binding, HL60 cell lysate. How it is done: as §2

Sequence of GSK3B (P49841 whole entry): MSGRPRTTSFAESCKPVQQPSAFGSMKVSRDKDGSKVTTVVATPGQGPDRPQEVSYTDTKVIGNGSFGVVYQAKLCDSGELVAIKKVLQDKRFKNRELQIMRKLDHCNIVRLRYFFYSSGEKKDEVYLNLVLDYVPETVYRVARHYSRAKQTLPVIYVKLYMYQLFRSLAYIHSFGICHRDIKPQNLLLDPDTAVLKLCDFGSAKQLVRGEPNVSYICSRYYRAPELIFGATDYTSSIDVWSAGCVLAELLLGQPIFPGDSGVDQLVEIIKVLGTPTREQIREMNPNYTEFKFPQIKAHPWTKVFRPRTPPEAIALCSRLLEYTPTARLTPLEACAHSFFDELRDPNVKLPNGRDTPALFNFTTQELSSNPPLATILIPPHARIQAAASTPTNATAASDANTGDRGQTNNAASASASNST

For `CS(=O)(=O)Nc1ccccc1Nc1nc(Nc2cccc(OCCN)c2)ncc1Cl` [CZC31326, N-(2-(2-(3-(2-aminoethoxy)phenylamino)-5-chloropyrimidin-4-ylamino)phenyl)methanesulfonamide], the inhibition at 10 µM on GSK3B is 93.3%; at IRE1, 91.8%; on AurA, 94%; at RSK3 it was 94.8%; at LRRK2 it was 85.2%; at MSK2, 95.3%. Further, the inhibition at 10 µM on FER was determined as 95.3%; on MSK1, 94.7%; on RET, 97.1%; at ACK, 93.6%; at EphB6, 93.6%. The Competition % on CRK7 is 92.1%.
